Measurements from patent US20240238314A1, “TREATMENT OF ESSENTIAL TREMOR” (Sage Therapeutics, Inc., priority 2021, published 2024).

Test system: individuals with essential tremor
Assay: Phase 2 placebo-controlled study, Compound 1 60 mg once daily for 28 days (reducible to 45 mg or 30 mg): TETRAS performance subscale part 4 upper limb tremor score and tremor amplitude
Format: in vivo, human
Settings: for % CFB in Tremor Amplitude: calculated from TETRAS part 4 ratings
Method: 4) Upper limb tremor: Tremor is assessed during three maneuvers: forward horizontal reach posture, lateral “wing beating” posture and finger-nose-finger testing. Each upper limb is assessed and scored individually. The forward horizontal reach posture is held for 5 seconds. The lateral wing beating posture is held for 20 seconds. The finger-nose-finger movement is executed three times. Amplitude assessment should be estimated using the maximally displaced point of the hand at the point of greatest displacement along any single plane. For example, the amplitude of a pure supination-pronation tremor, pivoting around the wrist would be assessed at either the thumb or fifth digit.
For all three hand tremor ratings: 0=no tremor. 1=tremor is barely visible. 1.5=tremor is visible, but less than 1 cm. 2=tremor is 1-<3 cm amplitude. 2.5=tremor is 3-<5 cm amplitude. 3=tremor is 5-<10 cm amplitude. 3.5=tremor is 10-<20 cm amplitude. 4=tremor is >20 cm amplitude.
As used herein, “The Essential Tremor Rating Assessment Scale (TETRAS) performance subscale part 4 upper limb tremor total score” refers to the “upper limb tremor” under metric or characteristic 4 of the TETRAS performance subscale set forth above. Each of the three tasks are performed on each limb to give a total of 6 tasks, wherein each task is scored 0, 1, 1.5, 2, 2.5, 3, 3.5, or 4, and each score is added to give a total score no greater than 24.
[formula] • wherein Tf is a final tremor amplitude; • Ti is an initial tremor amplitude; • Rf is a final tremor rating; • Ri is an initial tremor rating; • α is 0.05; and • N=6, for 6 tasks in TETRAS performance subscale part 4 upper limb tremor total score.
Participants were 18 to 80 years of age, inclusive, diagnosed of ET of at least 3 years duration with scores of at least 1.5 for each of the six items that comprised the combined total upper limb TETRAS (total performance subscale part 4) with the total score for the dominant upper limb (the sum of the 3 items for either the right or left upper limb, whichever is dominant) being at least 5.5, at both Screening and predose on Day 1.
Groups received either Compound 1 as orally administered tablet(s) (each tablet providing 15 mg of Compound 1) or matching placebo at 1:1 ratio. Tablets were formulated as immediate release, white to off-white, round, film-coated tablets containing 15 mg of Compound 1, filler, disintegrant, lubricant, and glidant, wherein the tablets were formed using direct compression and coated with Opadry® II white as the film coating.
Participants were randomized to receive Compound 1 60 mg or placebo once daily in the morning on a 1:1 basis. If participants reported a TEAE considered by investigator to be related to Compound 1 and not tolerable, investigator might reduce the dose of Compound 1 from 60 mg in 15 mg decrements (i.e., 60 mg, to 45 mg, to 30 mg), as medically appropriate. If intolerable TEAEs persist at the 30 mg dose, Compound 1 was permanently stopped.
This study included a Screening Period of up to 28 days, a 29-day treatment period consisting of 28 days of dosing with the end of treatment visit intended to be on Day 29 at trough, and a 14-day follow-up period relative to final dose. Study patients were not taking other medications for essential tremor during the 28-day treatment period.
The model included the change from baseline at each visit as the dependent variable, treatment, baseline TETRAS performance subscale part 4 upper limb tremor score, assessment timepoint, and timepoint-by-treatment as explanatory variables. All explanatory variables were treated as a fixed effect. The main comparison was (difference in least mean square [LSMEAN]) between Compound 1 and placebo at the 29-day timepoint.
Model-based point estimates (i.e., LSMEAN, 95% confidence intervals, and p-values) were reported where applicable. An unstructured covariance structure was used to model the within-subject errors. […]

[1] = Baseline TETRAS Upper Limb Part 4 < 12, Day 29
[2] = Baseline TETRAS Upper Limb Part 4 ≥ 12, Day 29
[3] = Baseline part 4 upper limb total score ≥ 12, Day 8
[4] = Baseline part 4 upper limb total score ≥ 12, Day 15, 5 hr postdose
[5] = Baseline part 4 upper limb total score ≥ 12, Day 15, 8 hr postdose
[6] = Baseline part 4 upper limb total score ≥ 12, Day 15, predose
[7] = Baseline part 4 upper limb total score ≥ 12, Day 22
[8] = Baseline part 4 upper limb total score ≥ 12, Day 42
[9] = Full Analysis Set, Day 15, 5 hr postdose
[10] = Full Analysis Set, Day 15, 8 hr postdose
[11] = Full Analysis Set, Day 15, predose

COC[C@@]1(O)CC[C@H]2[C@@H](CC[C@@H]3[C@@H]2CC[C@]2(C)[C@@H](C(=O)Cn4nnc(C)n4)CC[C@@H]32)C1 [Compound 1]
LSMean (SE) CFB in TETRAS performance subscale part 4 upper limb tremor total score [1]: −1.06 | LSMean Difference (CI) vs placebo in CFB in TETRAS performance subscale part 4 upper limb tremor total score [1]: 0.45 | Mean (SD) % CFB in TETRAS performance subscale part 4 upper limb tremor total score [1]: −7.76% | % CFB in Tremor Amplitude [1]: −18.40% | Frequency of % CFB in tremor amplitude category 15-<30%, number of participants [2]: 6 | Frequency of % CFB in tremor amplitude category 15-<30%, percent of participants [2]: (28.6) | Frequency of % CFB in tremor amplitude category 30-<50%, number of participants [2]: 2 | Frequency of % CFB in tremor amplitude category 30-<50%, percent of participants [2]: (9.5) | Frequency of % CFB in tremor amplitude category 50-<75%, number of participants [2]: 2 | Frequency of % CFB in tremor amplitude category 50-<75%, percent of participants [2]: (9.5) | Frequency of % CFB in tremor amplitude category <15%, number of participants [2]: 11 | Frequency of % CFB in tremor amplitude category <15%, percent of participants [2]: (52.4) | Frequency of % CFB in tremor amplitude category >75%, number of participants [2]: 0 | Mean (SD) % CFB in TETRAS performance subscale part 4 upper limb tremor total score [2]: −20.47% | % CFB in Tremor Amplitude [2]: −41.00% | LSMean difference vs placebo in change from baseline in TETRAS performance subscale part 4 upper limb tremor total score [3]: −1.33 | Model-based LSMean (SE) change from baseline in TETRAS performance subscale part 4 upper limb tremor total score [3]: −1.99 (0.340) | LSMean difference vs placebo in change from baseline in TETRAS performance subscale part 4 upper limb tremor total score [4]: −1.60 | Model-based LSMean (SE) change from baseline in TETRAS performance subscale part 4 upper limb tremor total score [4]: −3.12 (0.449) | LSMean difference vs placebo in change from baseline in TETRAS performance subscale part 4 upper limb tremor total score [5]: −1.38 | Model-based LSMean (SE) change from baseline in TETRAS performance subscale part 4 upper limb tremor total score [5]: −2.84 (0.445) | LSMean difference vs placebo in change from baseline in TETRAS performance subscale part 4 upper limb tremor total score [6]: −1.37 | Model-based LSMean (SE) change from baseline in TETRAS performance subscale part 4 upper limb tremor total score [6]: −2.15 (0.371) | LSMean difference vs placebo in change from baseline in TETRAS performance subscale part 4 upper limb tremor total score [7]: −1.48 | Model-based LSMean (SE) change from baseline in TETRAS performance subscale part 4 upper limb tremor total score [7]: −2.56 (0.383) | LSMean difference vs placebo in change from baseline in TETRAS performance subscale part 4 upper limb tremor total score (Baseline part 4 upper limb total score ≥ 12, Day 29): −1.70 | LSMean difference vs placebo in change from baseline in TETRAS performance subscale part 4 upper limb tremor total score [8]: 0.22 | Model-based LSMean (SE) change from baseline in TETRAS performance subscale part 4 upper limb tremor total score [8]: −1.59 (0.475) | Percent reduction from baseline in tremor amplitude (Full Analysis Set): 36 | LSMean difference vs placebo in change from baseline in TETRAS performance subscale part 4 upper limb tremor total score (Full Analysis Set, Day 8): −0.81 | Model-based LSMean (SE) change from baseline in TETRAS performance subscale part 4 upper limb tremor total score (Full Analysis Set, Day 8): −1.67 (0.287) | LSMean difference vs placebo in change from baseline in TETRAS performance subscale part 4 upper limb tremor total score [9]: −0.40 | Model-based LSMean (SE) change from baseline in TETRAS performance subscale part 4 upper limb tremor total score [9]: −2.64 (0.452) | LSMean difference vs placebo in change from baseline in TETRAS performance subscale part 4 upper limb tremor total score [10]: −0.27 | Model-based LSMean (SE) change from baseline in TETRAS performance subscale part 4 upper limb tremor total score [10]: −2.36 (0.441) | LSMean difference vs placebo in change from baseline in TETRAS performance subscale part 4 upper limb tremor total score [11]: −0.48 | Model-based LSMean (SE) change from baseline in TETRAS performance subscale part 4 upper limb tremor total score [11]: −1.78 (0.344)
